The values that follow come from PMC11206778, “Preclinical Pharmacokinetic Study and Lung Penetration of a Coumarin Extracted from Zanthoxylum tingoassuiba” (Pharmaceutics, 2024).

A short description of data set [1]: Plasma pharmacokinetics study in mice (non-compartmental analysis, HPLC-DAD). The class given is in vivo, Balb/c mice. The note with it: mean ± SD; for k el: read-out: ke (converted). As for the experimental part: The pharmacokinetic analysis was carried out with Balb/c mice (~30 g) obtained from the Animal Facilities at Oswaldo Cruz Foundation (Fiocruz, Bahia, Brazil) and kept in a room with environmental control (22 ± 2 °C and 12:12 h light–dark cycle), and with free access to water and food until the day of the experiment. Animal care and handling procedures were in strict accordance with the recommendations in the Guide for the Care and Use of Laboratory Animals of the National Institute of Health and the Brazilian College of Animal Experimentation. The protocol was approved by the Institutional Animal Care and Use Committee of FIOCRUZ (CEUA/FIOCRUZ, permit number: L-IGM-013/2021).
The compound was administered to the mice (n = 3 per time point) by inhalation and intravenous routes at 50 and 15 mg/kg, respectively. The intravenous administration was conducted through the lateral tail vein, and the inhalation dosing was conducted using inhalation exposure chambers. The nebulizer device was operated according to the manufacturer’s specifications. The blood samples were collected 0.083, 0.25, 0.5, 0.75, 1, 2, and 4 h after both administrations. The blood samples were centrifuged for plasma separation (6000 rpm, 10 min, 8 °C) and stored at −18 °C until analysis.
The non-compartmental pharmacokinetic parameters of both studies were estimated using PKanalix® Suite 2020R1 software (Lixoft®, Antony, France). The determined PK parameters included the elimination rate constant (ke), the elimination half-life (t1/2), the area under the concentration–time curve (AUC) calculated by the linear trapezoidal rule, the mean residence time (MRT), the total clearance (CL), and the volume of distribution (Vd).

Data set [2] in a line: Lung distribution in mice (AUC lung/AUC plasma ratio). The class given is in vivo. The following applies: male, Balb/c, mouse, read-out: Lung penetration factor (AUC inf lung/AUC inf plasma). As for the experimental part:
The lung distribution experiment used Male Balb/c (~30 g). After intravenous bolus and inhalation administration of 15 mg/kg and 50 mg/kg, respectively, of 6-methoxyseselin, three animals were sacrificed at 0.5 h, 1 h, 2 h, and 4 h, each. The lung samples were removed, gently blotted dry, weighed, and frozen at −80 °C until processing. On the day of the analysis, tissue samples were allowed to thaw and were weighed, and 2 mL of methanol was added per gram of tissue. The tissues were homogenized for approximately 5 min, and the homogenates were then transferred to Eppendorf® tubes and centrifuged at 3500× g for 15 min at 4 °C. A volume of supernatant was then processed similarly to the plasma samples and analyzed by HPLC-DAD. The lung penetration was calculated using the AUC lung/AUC plasma ratio. The trapezoidal method was used to estimate both AUCs.

The nature of data set [3]: Long-term stability in mice plasma stored at −18 °C. Type of data set: in vitro ADME. Here is the method: Stability assays were performed in triplicate with the QC samples (LQC and HQC) by adding 6-methoxyseselin to mice plasma. The stability after 30, 45, and 60 days was performed with samples stored at −18 °C. 6-methoxyseselin was considered stable in plasma for the period evaluated when the accuracy was within acceptable limits (RSE within ±15%).

The test system of data set [4] is arteries isolated from rats. Further details: method as in PMID 31711783, PMID 37149230. The note with it: cited from earlier work.
The conditions of data set [5]: cited from earlier work.
The mark [6] stands for this setting: Balb/c, mouse, inhaled or intranasal, inhalation 50 mg/kg.
The mark [7] stands for this setting: Balb/c, mouse, intravenous 15 mg/kg.

Where two headings read alike, the source gives them in different places.

Broadly, the MRT is the average time that molecules of a dose stay in the body. As a reminder, the half-life is the time in which the quantity being followed falls by half. What is called clearance is the rate of elimination divided by the concentration. `COc1cc2ccc(=O)oc2c2c1OC(C)(C)C=C2` [6-methoxyseselin]: in data set [1] (setting [6]), the MRT was 5.4 ± 2.1 h, the half-life was 3.3 ± 0.86 h and the k el is 5.83e-05 s⁻¹. In data set [1] (setting [7]), the MRT amounted to 3.23 ± 1.57 h, the clearance is 88.7 mL/min/kg, the half-life was 2.6 ± 0.73 h and the k el is 7.5e-05 s⁻¹. Besides, in data set [1] (Balb/c, mouse, intravenous 15 mg/kg, read-out: Vd), the Vd was 19.6 ± 1.57 L/kg. Further, in data set [1] (inhalation 50 mg/kg), the Cl worked out at 110 ± 39 mL/min/kg and the Vd was determined as 18.79 ± 2.58 L/kg. In addition, the Kp in data set [2] (inhaled, inhalation 50 mg/kg) was 2.14. For the same compound, the Kp in data set [2] (intravenous 15 mg/kg) was 1.45. Besides, the “Stability in storage (verdict)” value in data set [3] (60 days) was “unstable”. Also, the “Stability in storage (verdict)” value in data set [3] (until day 30) is recorded as “stable”. The Vasorelaxation entry in data set [4] is recorded as “potent vasorelaxation”.
Consider `CCCC1O[C@@H]2C[C@H]3[C@@H]4CCC5=CC(=O)C=C[C@]5(C)[C@H]4[C@@H](O)C[C@]3(C)[C@]2(C(=O)CO)O1` (stereo partly drawn) [budesonide], for which the half-life in data set [5] was 2 to 3.6 h. Besides, the Vd in data set [5] (reference not given, ref 22 follows in the same paragraph) is 2.2 to 3.9 L/kg.
As for `CC(C)(C)NCC(O)c1ccc(O)c(CO)c1` (stereo not drawn) [salbutamol], in data set [5], the Vd was 3 to 4 L/kg.
